This note sets out measurements from patent publication US12528773B2, “Non-lysosomal glucosylceramidase inhibitors and uses thereof” (ALECTOS THERAPEUTICS INC., priority 2020, dated 2026).

The target of assay [1] is GBA2 (Homo sapiens (Human), UniProt Q9HCG7). The experiment in a line: Inhibition of GBA2 in cell lysate (4-methylumbelliferone glucopyranoside substrate).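 Further: homogenate of stably transfected HEK293T cells pre-treated with a GCase inhibitor, test compound preincubated 5 min at 37 °C, substrate reaction 20 min at 37 °C.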 Type of assay: biochemical. The conditions noted are these: HEK293T-overexpressing GBA2 cellular homogenate, pH 5.5; read-out: GBA2 IC50.
Sequence of GBA2 (Q9HCG7 whole entry): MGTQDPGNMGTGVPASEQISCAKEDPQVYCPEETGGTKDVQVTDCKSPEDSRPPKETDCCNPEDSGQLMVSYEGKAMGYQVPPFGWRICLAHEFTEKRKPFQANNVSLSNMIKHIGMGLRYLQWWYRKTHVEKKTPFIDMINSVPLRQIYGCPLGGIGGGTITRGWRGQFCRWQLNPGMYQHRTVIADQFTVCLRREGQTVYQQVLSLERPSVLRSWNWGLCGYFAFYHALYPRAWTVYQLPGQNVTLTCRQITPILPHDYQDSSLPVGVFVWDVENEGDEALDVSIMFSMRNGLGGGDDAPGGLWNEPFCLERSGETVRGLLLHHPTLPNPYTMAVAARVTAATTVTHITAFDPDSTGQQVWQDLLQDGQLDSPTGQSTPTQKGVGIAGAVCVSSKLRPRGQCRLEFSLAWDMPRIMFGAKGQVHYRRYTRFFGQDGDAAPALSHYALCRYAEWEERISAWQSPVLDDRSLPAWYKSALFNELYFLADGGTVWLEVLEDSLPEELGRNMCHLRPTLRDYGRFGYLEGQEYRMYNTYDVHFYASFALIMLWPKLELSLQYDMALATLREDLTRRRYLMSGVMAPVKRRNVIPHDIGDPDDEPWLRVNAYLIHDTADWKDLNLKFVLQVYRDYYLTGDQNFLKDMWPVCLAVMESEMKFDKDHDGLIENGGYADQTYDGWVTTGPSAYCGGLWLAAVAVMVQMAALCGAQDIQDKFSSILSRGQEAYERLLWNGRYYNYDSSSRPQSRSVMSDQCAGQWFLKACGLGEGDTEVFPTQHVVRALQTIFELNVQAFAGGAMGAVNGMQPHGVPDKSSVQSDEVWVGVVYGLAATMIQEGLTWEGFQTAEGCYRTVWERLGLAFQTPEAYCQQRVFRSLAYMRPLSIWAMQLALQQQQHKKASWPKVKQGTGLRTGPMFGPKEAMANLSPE
Assay [2] has as its system rat intestinal alpha-glucosidases. The experiment in a line: Inhibition of rat intestinal alpha-glucosidases (rat intestinal lysate, glucose detection). Type of assay: biochemical. The conditions noted are these: compound concentration 25 μM, sucrose as substrate. How it is done:
Assay for Determination of Inhibition of Rat Intestinal Alpha-Glucosidases
Various concentrations of test compounds were prepared in DMSO and then diluted into buffer consisting of 100 mM citric acid, 200 mM disodium phosphate, pH 6.0. Rat intestinal acetone powder (Sigma) was dissolved to 12.5 mg/mL in assay buffer and sonicated in an ice bath, centrifuged, and the supernatant was collected, aliquoted and stored at −20° C. until use. On the day of the assay, the rat intestinal lysate was diluted to 6.25 mg/mL (sucrose reactions) and 2.1 mg/ml (maltose reactions) in assay buffer. The final reaction solutions for sucrose contained 2.1 mg/mL rat intestinal lysate, 40 mM sucrose, 50 or 25 μM of test compound, and 3.3% DMSO. The final reaction solution for maltose contained 0.69 mg/mL rat intestinal lysate, 10 mM maltose, 50 or 25 μM of test compound, and 3.3% DMSO. The reaction was initiated by the addition of substrate (sucrose or maltose) and allowed to proceed at 37° C. for 20 min to assess rat intestinal alpha-glycosidase activities. The reaction was stopped by addition of 20 μL of 2 M Tris-HCl, pH 7.0. The glucose produced during the reaction was detected using a commercial Amplex Red glucose detection kit from Thermo Fisher. For a full plate, the Amplex Red detection mixture was prepared by mixing 35 μL glucose oxidase, 35 μL horseradish peroxidase and 35 μL Amplex Red into 3395 μL 1× Amplex Red detection buffer. A total of 30 μL of detection mixture was added to each well. Fluorescence was measured in kinetic mode on a Biotek Synergy H4 plate reader at a wavelength of 573 nm for excitation and 610 nm for emission for 15 min and quantified from the data at 10 min. Incubations without added rat intestinal lysate were used to correct for the background amount of glucose present in the samples. Incubations without added test compound were used to define maximal enzyme activity. Percent inhibition of rat intestinal alpha-glucosidases was determined by dividing the amount of glucose detected in the presence of test compound by the amount of glucose detected in the maximal enzyme activity wells. All conditions were analyzed in triplicate. […] The final reaction solutions were the same as described above for the Amplex Red Detection kit. After a 20 min reaction time at 37° C., 100 μL of hexokinase glucose reagent was added to all test wells except for the no enzyme added control wells and no test compound added wells. The plate was incubated for a further 15 min at room temperature and the absorbance was read at 340 nm on a Biotek Synergy H4 plate reader. The percent inhibition of rat intestinal alpha-glucosidases was determined in a similar manner as described above.

With `O[C@H]1[C@H](O)CN(C[C@H]2CC[C@@H](C(F)F)CC2)C[C@@H]1O` [Example 186, (3S,4R,5R)-1-(((1s,4S)-4-(difluoromethyl)cyclohexyl)methyl)piperidine-3,4,5-triol], the IC50 in assay [1] was 100 to 1000 nM. The “rat α-glu. (% inhib.)” value in assay [2] amounted to 8%. Taken in the same sequence, the figures for `O[C@H]1[C@H](O)CN(C[C@H]2CCN(c3ncccc3C(F)(F)F)C2)C[C@@H]1O` [Example 19, (3S,4R,5R)-1-(((R)-1-(3-(trifluoromethyl)pyridin-2-yl)pyrrolidin-3-yl)methyl)piperidine-3,4,5-triol] were under 100 nM and 6%. Taken in the same sequence, the figures for `O[C@H]1[C@H](O)CN(C[C@@H]2CCCN(c3ccc(C(F)(F)F)nc3)C2)C[C@@H]1O` [Example 178, (3S,4S,5R)-1-(((S)-1-(6-(trifluoromethyl)pyridin-3-yl)piperidin-3-yl)methyl)piperidine-3,4,5-triol] were 100 to 1000 nM and 6%. On the same counts, the results for `O=C(C1CCCCC1)N1CCC(F)(CN2C[C@@H](O)[C@H](O)[C@@H](O)C2)CC1` [Example 191, Cyclohexyl(4-fluoro-4-(((3S,4r,5R)-3,4,5-trihydroxypiperidin-1-yl)methyl)piperidin-1-yl)methanone] are 100 to 1000 nM and 1%. On to `O[C@H]1[C@H](O)CN(CC2(F)CCN(c3ccc(F)cc3)CC2)C[C@@H]1O` [Example 192, (3S,4r,5R)-1-((4-fluoro-1-(4-fluorophenyl)piperidin-4-yl)methyl)piperidine-3,4,5-triol], for which the IC50 in assay [1] lay in the range of 100 to 1000 nM. Further, in assay [2], the “rat α-glu. (% inhib.)” value came to 2%. On the same counts, the results for `O[C@H]1[C@H](O)CN(Cc2ccc(Oc3ccccc3)cc2)C[C@@H]1O` [Example 201, (3S,4r,5R)-1-(4-phenoxybenzyl)piperidine-3,4,5-triol] are under 100 nM and 3%. On the same counts, the results for `O[C@H]1[C@H](O)CN(CCc2ccc(Cl)c(Cl)c2)C[C@@H]1O` [Example 8, (3S,4r,5R)-1-(3,4-dichlorophenethyl)piperidine-3,4,5-triol] are under 100 nM and 0%. Taken in the same sequence, the figures for `O[C@H]1[C@H](O)CN(C[C@H]2CCCN(c3ccncc3C(F)(F)F)C2)C[C@@H]1O` [Example 172, (3S,4R,5R)-1-(((R)-1-(3-(trifluoromethyl)pyridin-4-yl)piperidin-3-yl)methyl)piperidine-3,4,5-triol] were under 100 nM and 15%. On to `CC(F)(F)[C@H]1CC[C@@H](CN2C[C@@H](O)[C@H](O)[C@@H](O)C2)CC1` [Example 187, (3S,4R,5R)-1-(((1s,4S)-4-(1,1-difluoroethyl)cyclohexyl)methyl)piperidine-3,4,5-triol], for which the IC50 in assay [1] is under 100 nM. Moreover, the “rat α-glu. (% inhib.)” value in assay [2] was 0%. On the same counts, the results for `O[C@H]1[C@H](O)CN(CC2(F)CCN(c3cccc(C(F)(F)F)n3)CC2)C[C@@H]1O` [Example 195, (3S,4r,5R)-1-((4-fluoro-1-(6-(trifluoromethyl)pyridin-2-yl)piperidin-4-yl)methyl)piperidine-3,4,5-triol] are 100 to 1000 nM and 5%. Consider `O[C@H]1[C@H](O)CN(CC2CCN(c3ccccc3)CC2)C[C@@H]1O` [Example 106, (3S,4r,5R)-1-((1-phenylpiperidin-4-yl)methyl)piperidine-3,4,5-triol], for which the IC50 in assay [1] was under 100 nM. The “rat α-glu. (% inhib.)” value in assay [2] worked out at 9%. On the same counts, the results for `O[C@H]1[C@H](O)CN(C[C@H]2CCCN(c3cc(C(F)(F)F)ccn3)C2)C[C@@H]1O` [Example 169, (3S,4R,5R)-1-(((R)-1-(4-(trifluoromethyl)pyridin-2-yl)piperidin-3-yl)methyl)piperidine-3,4,5-triol] are under 100 nM and 13%. Turning to `O[C@H]1[C@H](O)CN(C[C@@H]2CCCN(c3cncc(C(F)(F)F)c3)C2)C[C@@H]1O` [Example 175, (3S,4S,5R)-1-(((S)-1-(5-(trifluoromethyl)pyridin-3-yl)piperidin-3-yl)methyl)piperidine-3,4,5-triol], in assay [1], the half-maximal inhibitory concentration (IC50) was 100 to 1000 nM. The “rat α-glu. (% inhib.)” value in assay [2] was determined as 3%. Taken in the same sequence, the figures for `O[C@H]1[C@H](O)CN(Cc2ccc(N3CCCCC3)cc2)C[C@@H]1O` [Example 204, (3S,4r,5R)-1-(4-(piperidin-1-yl)benzyl)piperidine-3,4,5-triol] were 100 to 1000 nM and 4%. On the same counts, the results for `O[C@H]1[C@H](O)CN(C[C@H]2CCCN(c3ccc(C(F)(F)F)cn3)C2)C[C@@H]1O` [Example 170, (3S,4R,5R)-1-(((R)-1-(5-(trifluoromethyl)pyridin-2-yl)piperidin-3-yl)methyl)piperidine-3,4,5-triol] are under 100 nM and 14%. Taken in the same sequence, the figures for `O[C@H]1[C@H](O)CN(C[C@H]2CCN(c3cccc(C(F)(F)F)n3)C2)C[C@@H]1O` [Example 142, (3S,4R,5R)-1-(((R)-1-(6-(trifluoromethyl)pyridin-2-yl)pyrrolidin-3-yl)methyl)piperidine-3,4,5-triol] were under 100 nM and 0%.

On to `O[C@H]1[C@H](O)CN(C[C@H]2CCCN(c3cnccc3C(F)(F)F)C2)C[C@@H]1O` [Example 167, (3S,4R,5R)-1-(((R)-1-(4-(trifluoromethyl)pyridin-3-yl)piperidin-3-yl)methyl)piperidine-3,4,5-triol], for which, in assay [1], the IC50 is under 100 nM. For the same compound, the “rat α-glu. (% inhib.)” value in assay [2] is given as 4%.

Take `O[C@H]1[C@H](O)CN(Cc2ccc(-c3ccccc3)cc2)C[C@@H]1O` [Example 202, (3S,4r,5R)-1-([1,1′-biphenyl]-4-ylmethyl)piperidine-3,4,5-triol]: in assay [1], the half-maximal inhibitory concentration (IC50) is under 100 nM. Moreover, the “rat α-glu. (% inhib.)” value in assay [2] stood at 11%. Take `O[C@H]1[C@H](O)CN(C[C@H]2CCCN(c3ccc(C(F)(F)F)nc3)C2)C[C@@H]1O` [Example 171, (3S,4R,5R)-1-(((R)-1-(6-(trifluoromethyl)pyridin-3-yl)piperidin-3-yl)methyl)piperidine-3,4,5-triol]: in assay [1], the IC50 was under 100 nM. Also, in assay [2], the “rat α-glu. (% inhib.)” value worked out at 1%. On to `O[C@H]1[C@H](O)CN(Cc2ccc(N3CCCC3)cc2)C[C@@H]1O` [Example 203, (3S,4r,5R)-1-(4-(pyrrolidin-1-yl)benzyl)piperidine-3,4,5-triol], for which the IC50 in assay [1] was 100 to 1000 nM.

For `CCCCN1C[C@H](O)[C@@H](O)[C@H](O)[C@H]1CO` [NB-DNJ, (2R,3R,4R,5S)-1-butyl-2-(hydroxymethyl)piperidine-3,4,5-triol, reference compound], the “rat α-glu. (% inhib.)” value in assay [2] is listed as 98%. With `O[C@H]1[C@H](O)CN(C[C@H]2CCCN(c3nc(C(F)(F)F)cs3)C2)C[C@@H]1O` [Example 33, (3S,4R,5R)-1-(((R)-1-(4-(trifluoromethyl)thiazol-2-yl)piperidin-3-yl)methyl)piperidine-3,4,5-triol], in assay [1], the half-maximal inhibitory concentration (IC50) is under 100 nM. `OC[C@@H]1[C@@H](O)[C@H](O)[C@@H](O)CN1CCCCCOCC12CC3CC(CC(C3)C1)C2` [AMP-DNM, (2R,3R,4R,5S)-1-(5-((3R,5R,7R)-adamantan-1-ylmethoxy)pentyl)-2-(hydroxymethyl)piperidine-3,4,5-triol, reference compound]: the “rat α-glu. (% inhib.)” value in assay [2] was 85%.
